The structures appear in SMILES notation. Where only a bound is given, the exact number is not on record here.

This is an account of results in patent US8399480B2, “Hydroxymethyl pyrrolidines as beta 3 adrenergic receptor agonists” (Merck Sharp & Dohme Corp., priority 2008, dated 2013).

T1 sequence (P13945 whole entry): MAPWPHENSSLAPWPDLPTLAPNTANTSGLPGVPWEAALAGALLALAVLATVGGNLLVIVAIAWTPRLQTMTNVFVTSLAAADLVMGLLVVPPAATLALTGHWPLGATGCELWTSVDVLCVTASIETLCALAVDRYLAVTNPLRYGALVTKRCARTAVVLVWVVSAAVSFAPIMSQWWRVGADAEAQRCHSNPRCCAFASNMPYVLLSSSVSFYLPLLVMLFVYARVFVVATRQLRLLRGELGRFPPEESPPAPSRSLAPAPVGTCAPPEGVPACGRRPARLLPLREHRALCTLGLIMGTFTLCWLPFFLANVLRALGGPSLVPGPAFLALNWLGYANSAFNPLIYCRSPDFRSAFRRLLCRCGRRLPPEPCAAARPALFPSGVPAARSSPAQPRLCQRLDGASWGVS

One assay has as its target T1, human β3 adrenergic receptor (Homo sapiens, UniProt P13945).
T1 construct: expressed in transfected cells; host or cells: Chinese hamster ovary (CHO) cells, stably transfected
In words: Functional assay: cAMP production (LANCE TR-FRET) in CHO cells stably transfected with cloned β3 adrenergic receptor. Format: cell-based. As to conditions: Table 5; read-out: Human β3 Functional. The method, then: Chinese hamster ovary (CHO) cells, stably transfected with the cloned β-adrenergic receptor (β1, β2 or β3) are harvested after 3 days of subculturing. Harvesting of cells is done with Enzyme-free Dissociation Media (Specialty Media). Cells are then counted and resuspended in assay buffer (Hank's Balanced salt solution supplemented with 5 mM HEPES, 0.1% BSA) containing a phosphodiesterase inhibitor (IBMX, 0.6 mM). The reaction is initiated by mixing 6,000 cells in 6 μL with 6 μL Alexa Fluor labeled cAMP antibody (LANCE™ kit) which is then added to an assay well containing 12 μL of compound (diluted in assay buffer to 2× final concentration). The reaction proceeds for 30 min at room temperature and is terminated by the addition of 24 μL detection buffer (LANCE™ kit). The assay plate is then incubated for 1 h at room temperature and time-resolved fluorescence measured on a Perkin Elmer Envision reader or equivalent. The unknown cAMP level is determined by comparing fluorescence levels to a cAMP standard curve.
The non-selective, full agonist β-adrenergic ligand isoproterenol is used at all three receptors to determine maximal stimulation. […] Data are analyzed using Microsoft Excel and Graphpad Prism or an internally developed data analysis software package.
On the technique in general: Cyclic AMP is a second messenger, typically raised through Gs and lowered through Gi signalling.
Consider `O=C(Nc1ccc(C[C@@H]2CC[C@H]([C@H](O)c3ccccc3)N2)cc1)C1CCc2ccccc2C1` (single isomer, unassigned) [Example 108], for which the EC50 fell in the range of 0.101 to 1 µM.

On to `O=C(Nc1ccc(C[C@@H]2CC[C@H]([C@H](O)c3ccccc3)N2)cc1)C1CCc2ccccc2C1` (single isomer, unassigned) [Example 109], for which the EC50 was 1 to 3 µM.

Consider `O=C(Nc1ccc(C[C@@H]2CC[C@H]([C@H](O)c3ccccc3)N2)cc1)C1CCc2ccccc21` (single isomer, unassigned) [Example 110], for which the EC50 was in the range of 0.011 to 0.1 µM.

With `O=C(Nc1ccc(C[C@@H]2CC[C@H]([C@H](O)c3ccccc3)N2)cc1)C1CCc2ccccc21` (single isomer, unassigned) [Example 111], the EC50 fell in the range of 0.101 to 1 µM.

In the case of `O=C(Nc1ccc(C[C@@H]2CC[C@H]([C@H](O)c3ccccc3)N2)cc1)C1CCCc2ccccc21` (single isomer, unassigned) [Example 112], the EC50 was 0.011 to 0.1 µM.

On to `O=C(Nc1ccc(C[C@@H]2CC[C@H]([C@H](O)c3ccccc3)N2)cc1)C1CCCc2ccccc21` (single isomer, unassigned) [Example 113], for which the EC50 was in the range of 0.101 to 1 µM.

In the case of `Nc1nc2c(s1)CCCC2C(=O)Nc1ccc(C[C@@H]2CC[C@H]([C@H](O)c3ccccc3)N2)cc1` (single isomer, unassigned) [Example 116], the EC50 was 0.001 to 0.01 µM.

Regarding `Nc1nc2c(s1)CCCC2C(=O)Nc1ccc(C[C@@H]2CC[C@H]([C@H](O)c3ccccc3)N2)cc1` (single isomer, unassigned) [Example 117], the EC50 is less than 0.001 µM.

In the case of `Cc1nc2c(s1)CCC2C(=O)Nc1ccc(C[C@@H]2CC[C@H]([C@H](O)c3ccccc3)N2)cc1` (single isomer, unassigned) [Example 118], the EC50 lay in the range of 0.001 to 0.01 µM.

`Cc1nc2c(s1)CCC2C(=O)Nc1ccc(C[C@@H]2CC[C@H]([C@H](O)c3ccccc3)N2)cc1` (single isomer, unassigned) [Example 119]: the EC50 was less than 0.001 µM.

In the case of `Cc1nc2c(s1)CCCC2C(=O)Nc1ccc(C[C@@H]2CC[C@H]([C@H](O)c3ccccc3)N2)cc1` (single isomer, unassigned) [Example 120], the EC50 was in the range of 0.011 to 0.1 µM.

On to `Cc1nc2c(s1)CCCC2C(=O)Nc1ccc(C[C@@H]2CC[C@H]([C@H](O)c3ccccc3)N2)cc1` (single isomer, unassigned) [Example 121], for which the EC50 lay within 0.001 to 0.01 µM.

On to `O=C(Nc1ccc(C[C@@H]2CC[C@H]([C@H](O)c3ccccc3)N2)cc1)C1CCc2sc(-c3ccc(F)cc3)nc21` (single isomer, unassigned) [Example 122], for which the EC50 was in the range of 0.101 to 1 µM.

Regarding `O=C(Nc1ccc(C[C@@H]2CC[C@H]([C@H](O)c3ccccc3)N2)cc1)C1CCc2sc(-c3ccc(F)cc3)nc21` (single isomer, unassigned) [Example 123], the EC50 is 0.101 to 1 µM.

As to `Cc1nnc2n1CCC2C(=O)Nc1ccc(C[C@@H]2CC[C@H]([C@H](O)c3ccccc3)N2)cc1` (single isomer, unassigned) [Example 124], the EC50 is 0.001 to 0.01 µM.

On to `Cc1nnc2n1CCC2C(=O)Nc1ccc(C[C@@H]2CC[C@H]([C@H](O)c3ccccc3)N2)cc1` (single isomer, unassigned) [Example 125], for which the EC50 fell in the range of 0.001 to 0.01 µM.

With `Cc1nnc2n1C(C(=O)Nc1ccc(C[C@@H]3CC[C@H]([C@H](O)c4ccccc4)N3)cc1)CC2` (single isomer, unassigned) [Example 126], the EC50 was in the range of 0.011 to 0.1 µM.

As to `Cc1nnc2n1C(C(=O)Nc1ccc(C[C@@H]3CC[C@H]([C@H](O)c4ccccc4)N3)cc1)CC2` (single isomer, unassigned) [Example 127], the EC50 fell in the range of 0.101 to 1 µM.

With `O=C(Nc1ccc(C[C@@H]2CC[C@H]([C@H](O)c3ccccc3)N2)cc1)C1CCc2ncnn21` (single isomer, unassigned) [Example 128], the EC50 lay within 0.011 to 0.1 µM.

For the molecule `O=C(Nc1ccc(C[C@@H]2CC[C@H]([C@H](O)c3ccccc3)N2)cc1)C1CCc2ncnn21` (single isomer, unassigned) [Example 129], the EC50 fell in the range of 0.011 to 0.1 µM.

On to `O=C(Nc1ccc(C[C@@H]2CC[C@H]([C@H](O)c3ccccc3)N2)cc1)C1CCn2nnnc21` (single isomer, unassigned) [Example 130], for which the EC50 is 0.001 to 0.01 µM.

Turning to `O=C(Nc1ccc(C[C@@H]2CC[C@H]([C@H](O)c3ccccc3)N2)cc1)C1CCn2nnnc21` (single isomer, unassigned) [Example 131], the EC50 fell in the range of 0.001 to 0.01 µM.

`O=C(Nc1ccc(C[C@@H]2CC[C@H]([C@H](O)c3ccccc3)N2)cc1)C1CCc2cccnc21` (single isomer, unassigned) [Example 132]: the EC50 is less than 0.001 µM.

Take `O=C(Nc1ccc(C[C@@H]2CC[C@H]([C@H](O)c3ccccc3)N2)cc1)C1CCc2cccnc21` (single isomer, unassigned) [Example 133]: the EC50 was less than 0.001 µM.

As to `O=C(Nc1ccc(C[C@@H]2CC[C@H]([C@H](O)c3ccccc3)N2)cc1)C1CCc2ccc(=O)[nH]c21` (single isomer, unassigned) [Example 134], the EC50 was in the range of 0.101 to 1 µM.

On to `O=C(Nc1ccc(C[C@@H]2CC[C@H]([C@H](O)c3ccccc3)N2)cc1)C1CCc2ccc(=O)[nH]c21` (single isomer, unassigned) [Example 135], for which the EC50 was in the range of 0.101 to 1 µM.

For the molecule `O=C(Nc1ccc(C[C@@H]2CC[C@H]([C@H](O)c3ccccc3)N2)cc1)C1CCc2cn[nH]c21` (single isomer, unassigned) [Example 136], the EC50 was 0.011 to 0.1 µM.

Take `O=C(Nc1ccc(C[C@@H]2CC[C@H]([C@H](O)c3ccccc3)N2)cc1)C1CCc2cn[nH]c21` (single isomer, unassigned) [Example 137]: the EC50 lay in the range of 0.011 to 0.1 µM.

With `Cc1n[nH]c2c1CCC2C(=O)Nc1ccc(C[C@@H]2CC[C@H]([C@H](O)c3ccccc3)N2)cc1` (single isomer, unassigned) [Example 138], the EC50 fell in the range of 0.011 to 0.1 µM.

In the case of `Cc1n[nH]c2c1CCC2C(=O)Nc1ccc(C[C@@H]2CC[C@H]([C@H](O)c3ccccc3)N2)cc1` (single isomer, unassigned) [Example 139], the EC50 was 0.001 to 0.01 µM.

Turning to `Cc1noc2c1CCC2C(=O)Nc1ccc(C[C@@H]2CC[C@H]([C@H](O)c3ccccc3)N2)cc1` (single isomer, unassigned) [Example 140], the EC50 lay in the range of 0.011 to 0.1 µM.

Turning to `Cc1noc2c1CCC2C(=O)Nc1ccc(C[C@@H]2CC[C@H]([C@H](O)c3ccccc3)N2)cc1` (single isomer, unassigned) [Example 141], the EC50 fell in the range of 0.001 to 0.01 µM.

Turning to `O=C(O)c1nc2c(s1)CCC2C(=O)Nc1ccc(C[C@@H]2CC[C@H]([C@H](O)c3ccccc3)N2)cc1` (single isomer, unassigned) [Example 142], the EC50 fell in the range of 0.101 to 1 µM.

On to `O=C(O)c1nc2c(s1)CCC2C(=O)Nc1ccc(C[C@@H]2CC[C@H]([C@H](O)c3ccccc3)N2)cc1` (single isomer, unassigned) [Example 143], for which the EC50 was in the range of 0.011 to 0.1 µM.

Consider `O=C(Nc1ccc(C[C@@H]2CC[C@H]([C@H](O)c3ccccc3)N2)cc1)C1CCc2sc(Br)nc21` (single isomer, unassigned) [Example 144], for which the EC50 is 0.001 to 0.01 µM.

`O=C(Nc1ccc(C[C@@H]2CC[C@H]([C@H](O)c3ccccc3)N2)cc1)C1CCc2sc(Br)nc21` (single isomer, unassigned) [Example 145]: the EC50 is less than 0.001 µM.

The same assay, now with this note: given as a range; cAMP, CHO cells; read-out: human β3 functional activity.
Regarding `Nc1nc2c(s1)CCC2C(=O)Nc1ccc(C[C@@H]2CC[C@H]([C@H](O)c3ccccc3)N2)cc1` (single isomer, unassigned) [Example 4], the EC50 is less than 0.001 µM.
